Test results published in patent publication US9017963B2, “Method for detecting microorganisms” (Woundchek Laboratories (US), Inc., priority 2002, dated 2015).
Primed or numbered codes have the meaning given here. No end group written: not given here. *: point of attachment. Dabcyl″ = label, CN(C)c1ccc(/N=N/c2ccc(C(=O)*)cc2)cc1; EDANS = O=S(=O)(O)c1cccc2c(NCCN*)cccc12; Dabcyl′ = not defined here; pyrene = label

What was measured:
[1] = system: Pseudomonas; assay: Peptide on positively charged membrane exposed to Pseudomonas culture medium; type: biochemical; conditions: FIG. 17C
From the text: Electrostatic interactions make use of the charges on the peptide or chromophore to bind it to a surface to make a biosensor. For example, ion exchange membranes with a strong negative (ICE450) or positive (SB-6407) charge are available from Pall Gelman Laboratory, Ann Arbor, Mich. It is possible to bind the peptide substrates through interactions with their charged groups. The peptide substrate papa2, as described herein, was spotted onto a positively charged membrane and exposed to Pseudomonas culture medium.

[2] = system: Pseudomonas protease; assay: Protease assay with modified version of papa1, bacterial supernatants; type: biochemical, Pseudomonas aeruginosa; conditions: supernatants of eight bacteria; excitation 355 nm, emission 485 nm; FIG. 17A
Method: The protease assay described herein for detection of P. aeruginosa was run with the modified version of papa1. […] Each of the resulting cultures was spun down by centrifugation and the supernatant was collected. The assays were run in 20 mM tris buffer (pH 7.4) with 150 mM NaCl added. The reaction was carried out with 7 μL of supernatant and 3 μL of peptide substrate (5 mg/mL in water) in 100 μL total volume at 37° C. The reaction was followed on a fluorimetric plate reader using an excitation wavelength of 355 nm and an emission wavelength of 485 nm.

[3] = system: surface of Staphylococcus; assay: Binding of fluorescent peptide to the surface of Staphylococcus; conditions: predicted
From the text: Substrates for use in the present invention include any molecule, either synthetic or naturally-occurring that can interact with an enzyme of the present invention. Examples of substrates include those substrates described herein, as well as substrates for these enzymes that are known in the art. […] Such substrates described herein can be obtained from commercial sources, e.g., Sigma (St. Louis, Mo.), or can be produced, e.g., isolated or purified, or synthesized using methods known to those of skill in the art.

[4] = system: DNA metabolism enzymes (exonuclease and endonuclease) in bacterial supernatants; assay: Fluorescent DNA probe assay for DNA metabolism activity; type: biochemical; conditions: supernatants of eight bacteria; excitation 485 nm, emission 538 nm; 37° C.
Method: Another method for detecting DNA metabolism activity is to generate synthetic colorimetric and fluorescent DNA probes that can indicate DNA hydrolysis (exonuclease and endonuclease activity). The method was carried out as follows. Two complementary oligonucleotides were generated. One oligonucleotide was labeled with self-quenching fluorescent labels, while the other primer remained unlabeled. The sequences of the oligonucleotides were as follows: Unlabeled Sequence 5′-[…]-3 (SEQ ID NO: 6); and Labeled Sequence FL-5′-[…]-3′-FL (SEQ ID NO: 7). […] The culture was spun down by centrifugation and the supernatant was collected. The fluorescent labeled primer and its unlabeled complement were dissolved in water at a concentration of approximately 1 mg/mL. The primers were heated to melting temperature for 2 minutes at 92° C., then allowed to anneal for 5 minutes at 43° C. After annealing, the DNA substrate was added to the reaction buffer (20 mM tris (pH 7.4) with 150 mM NaCl) and incubated at 37° C. for 10 minutes. The reaction was carried out with 7 μL of culture supernatant and 3 μL of DNA substrate in 100 μL total volume at 37° C. The reaction was followed using a fluorimetric plate reader using an excitation wavelength of 485 nm and an emission wavelength of 538 nm. […]

[5] = system: Staphylococcus epidermidis; assay: Glass microfiber filter biosensor, S. epidermidis culture; type: biochemical; conditions: Quadrant #2, S. epidermidis; 37° C., 30 minutes
Method: (§1) An example of a biosensor for the detection of an enzyme secreted by Staphylococcus epidermidis (S. epidermidis), and therefore, for the detection of Staphylococcus epidermidis now follows. A […] solution of 20 mM p-nitrophenyl Caprate (in ispropanol) was applied to a 2.5 cm glass microfiber filter (Whatman GF/A). The isopropanol was allowed to evaporate at room temperature for 30 minutes, leaving the substrate bound to the filter. After the filter was completely dry, a single drop of bacterial culture was applied to each quadrant of the filter. In Quadrant #1, Staphylococcus aureus was applied; in Quadrant #2, Staphylococcus epidermidis was applied; in Quadrant #3 Streptococcus salivarius was applied, and in Quadrant #4, media was applied as a control. The filter was incubated at 37° C. for 30 minutes, and detection of a yellow dye, indicating modification of the substrate by an enzyme in the bacteria was detected.

[6] = system: Staphylococcus aureus; assay: Glass microfiber filter biosensor, S. aureus culture; type: biochemical; conditions: Quadrant #1, S. aureus; 37° C., 30 minutes
Method: as §1

[7] = system: Streptococcus salivarius; assay: Glass microfiber filter biosensor, S. salivarius culture; type: biochemical; conditions: Quadrant #3, S. salivarius; 37° C., 30 minutes
Method: as §1

[8] = system: Serratia marcescens, Streptococcus salivarius, Escherichia coli, Pseudomonas aeruginosa, Enterococcus faecalis supernatants; assay: Lipase assay, other bacterial supernatants; type: biochemical; conditions: other bacterial samples; 20 mM Tris (pH 8.5); 37° C., 60 minutes
Method: (§2) A culture of each of the following bacterial species was grown to saturation in Brain Heart Infusion (BHI) broth at 37° C. with vigorous shaking (˜200 rpm), using methods that are standard in the art: Staphylococcus aureus; Staphylococcus epidermidis; Serratia marcescens; Streptococcus salivarius; Escherichia coli; Pseudomonas aeruginosa; and Enterococcus faecalis. After overnight growth (to saturation), a 1 mL sample of each culture was obtained, and the cells were removed from the culture supernatant by centrifugation at 12,000×g for 5 minutes. The remaining culture supernatants were stored on ice until required (less than one hour). The bacteria were assayed for the presence or absence of specific enzymes as described below. Alternatively, the bacterial cells are not separated from the culture supernatant, but rather, the assay is carried out on a sample containing the cells still in suspension in their culture broth. […]
(§3) To perform the lipase assay, 80 μL of reaction buffer, 10 μL of culture supernatant from each bacteria species described in Example 2, and 10 μL of assay substrate were added to a well of a 96-well microplate. […] At 5 minute intervals during the incubation period, absorbance at 415 nm, indicating modification of the enzyme by a lipase secreted by the cells, was automatically measured using a BioRad Benchmark Microplate reader.

[9] = system: lipases secreted by bacteria (Staphylococcus epidermidis); assay: Lipase assay, S. epidermidis culture supernatant; type: biochemical; conditions: 20 mM Tris (pH 8.5), 37° C., 60 minutes
Method: as §2, §3

[10] = system: lipase from S. aureus; assay: Lipase assay, S. aureus culture supernatant; type: biochemical, Staphylococcus aureus; conditions: 20 mM Tris (pH 8.5), 37° C., 60 minutes
Method: A culture of each of the following bacterial species was grown to saturation in Brain Heart Infusion (BHI) broth at 37° C. with vigorous shaking (˜200 rpm), using methods that are standard in the art: Staphylococcus aureus; Staphylococcus epidermidis; Serratia marcescens; Streptococcus salivarius; Escherichia coli; Pseudomonas aeruginosa; and Enterococcus faecalis. After overnight growth (to saturation), a 1 mL sample of each culture was obtained, and the cells were removed from the culture supernatant by centrifugation at 12,000×g for 5 minutes. The remaining culture supernatants were stored on ice until required (less than one hour). The bacteria were assayed for the presence or absence of specific enzymes as described below. Alternatively, the bacterial cells are not separated from the culture supernatant, but rather, the assay is carried out on a sample containing the cells still in suspension in their culture broth.
To test for the presence or absence of lipases secreted by bacteria, the lipase substrate p-nitrophenyl caprate, obtained from Sigma (Catalog No.: N-0252). This lipase substrate consists of capric acid, a ten-carbon lipid molecule, esterified with the dye para nitrophenol (detectable label) as described above. The substrate was dissolved in isopropyl alcohol at a concentration of 8 mM (2.35 mg/mL). A reaction buffer containing 20 mM Tris (pH 8.5) was also prepared.
To perform the lipase assay, 80 μL of reaction buffer, 10 μL of culture supernatant from each bacteria species described in Example 2, and 10 μL of assay substrate were added to a well of a 96-well microplate. Each bacterial species was assayed individually, and the assays were performed in triplicate. The 96-well plate was incubated at 37° C. for 60 minutes. At 5 minute intervals during the incubation period, absorbance at 415 nm, indicating modification of the enzyme by a lipase secreted by the cells, was automatically measured using a BioRad Benchmark Microplate reader.
However, it is known that bacterial lipases do show strong substrate specificity with regard to the chain length of the fatty acid they hydrolyze (Van Kampen et al., BBA, 1544: 229, 2001) and to the location in a lipid layer. The degree that the environment of the substrate affects the efficiency of hydrolysis depends on the particular enzyme. To test this for the lipase from S. aureus, the above-described lipase assay was performed in the presence of several detergent and solvent additives. The reaction buffer consisted of 20 mM Tris (pH 8.3) with 1 mM ZnSO4 added, plus either nothing additional (control), 20% methanol, 20% DMSO, or 10 mM Triton X-100.

[11] = system: P. aeruginosa protease; assay: Protease assay on porcine wound fluid; type: biochemical, Pseudomonas aeruginosa; conditions: porcine wounds infected with 10^3, 10^4 or 10^5 bacteria, 3 days; 1 hour reaction; FIG. 18
Method: In order to test for the presence of enzymatic activity in a wound bacterial protease assay for detection of P. aeruginosa was performed on samples obtained from wound infections made in pigs. […] Each of the resulting cultures was diluted into sodium phosphate buffer at pH 7.2 with 150 mM NaCl (PBS buffer) to give samples containing 10^5, 10^4, and 10^3 bacteria total in 100 μL. Immediately after surgery to create a series of partial thickness wounds was performed on the pigs, the wound surfaces were treated with calcium chloride solution for a short period and then patted dry. A buffer solution containing diluted bacterial cultures was placed on the surface of the wounds. The wounds were then covered and the infections were allowed to grow for a period of 3 days. After the dressing was removed from the pigs and the wounds were scored for degree of inflammation, 100 μL of PBS buffer was added to the wound surface and the extracted wound fluid was recovered by pipet. Each of the samples was split in half and 50 μL were used to inoculate BHI plates and the other 50 μL were placed in plastic tubes and immediately frozen at −80° C.
The buffer used to dilute the wound fluid in the protease assays was PBS. […] The reaction was followed on a fluorimetric plate reader using an excitation wavelength of 355 nm and an emission wavelength of 528 nm.

[12] = system: Pseudomonas aeruginosa protease; assay: Protease assay for P. aeruginosa (strains P1, PA14, ZK45 supernatants); type: biochemical; conditions: 20 mM tris (pH 7.5), 150 mM NaCl, 37° C.
From the text: The peptide substrates used here were labeled with the fluorescent probe edans (5-((2-aminoethyl)amino)naphthalene-1-sulfonic acid) and the quencher dye molecule dabcyl ((4-(4-(dimethylamino)phenyl)azo)benzoic acid). The labeled peptide sequences used were as follows: […]

KKAS(E-edans)AAHKSALKSAE(K-dabcyl) (KKASE(EDANS)AAHKSALKSAEK(Dabcyl″)) [papa2, papa1 version with two lysine groups as tag for surface attachment]
fluorescence upon cleavage on membrane [1]: upon cleavage of the peptide yellow fluorescence
cleavage of protease substrate (relative fluorescence), comparison of species [2]: greatest fluorescence in the sample containing Pseudomonas

PGTKLYTVPW-pyrene [Alt derived fluorescent peptide]
change in fluorescence upon binding [3]: increase in fluorescence upon binding

FL-5′-AGGAATTCAGTGGATCCTCGAGAGG-3′-FL (antisense CCTCTCGAGGATCCACTGAATTCCT; sense: DNA, backbone not given here; antisense: DNA, backbone and methylation of C not given here; further chemistry not fully specified) [labeled DNA probe]
DNA metabolic activity (relative fluorescence of labeled probe) [4]: detected specific DNA metabolic activity associated with Enterococcus

CCCCCCCCCC(=O)Oc1ccc([N+](=O)[O-])cc1 [p-nitrophenyl caprate]
modification of labeled substrate on filter (yellow dye) [5]: Modification of the labeled substrate was detected
modification of labeled substrate on filter (yellow dye) [6]: no modification of the labeled substrate was detected
modification of labeled substrate on filter (yellow dye) [7]: no modification of the labeled substrate was detected
color change (absorbance at 415 nm) [8]: showed no color change
color change (absorbance at 415 nm) [9]: showed a dramatic color change
color change (absorbance at 415 nm) [10]: showed a dramatic color change

Edans - KAAHKSALKSAE - Dabcyl (Edans-KAAHKSALKSAE-{Dabcyl′}) [papa1, labeled peptide substrate of Pseudomonas aeruginosa, origin PepA]
detection of P. aeruginosa in extracted wound fluid (relative fluorescence) [11]: samples containing P. aeruginosa were detectable
enzymatic cleavage of peptide substrate (relative fluorescent intensity) [12]: cleaved
